The values below are quoted from earlier work in US20090291465A1, “Screening Method for Identifying New Drugs” (FUNDACIÓ PRIVADA PARC CIENTÍFIC DE BARCELONA, priority 2006, published 2009).

Data set [1] relates to isoleucyl-tRNA synthetases (IIeRS).
For data set [2] the following is noted: limits its use to topical applications.

Structures are written as SMILES.

For the molecule `C/C(=C\C(=O)OCCCCCCCCC(=O)O)C[C@@H]1OC[C@H](C[C@@H]2O[C@H]2[C@@H](C)[C@H](C)O)[C@@H](O)[C@H]1O` [Pseudomonic acid], the “selectivity for pathogen vs. mammalian IIeRS” value in data set [1] is approximately 8000 fold. Also, the systemic bioavailability entry in data set [2] is given as “lack of systemic bioavailability”.
